Reference: PubChem BioAssay AID1918998 (Molecular Pharmacology Branch, DTP, NCI, 2023)

Test system: 521955-158-R2-J5-PDC complex spheroid growth
Assay: Anticancer human tumor 521955-158-R2-J5-PDC patient-derived pancreatic carcinoma cell line growth inhibition [AhR]
Settings: for IC50: curve of first compound; for viability, T/C: stronger effect = lower value
Description: Multicellular complex tumor spheroid response to aryl hydrocarbon receptor antagonists in combination with a variety of drugs and investigational agents in selected tumor cell lines
The current study was undertaken to assess response to aryl hydrocarbon receptor antagonists in combination with standard-of-care drugs and investigational agents in solid tumor complex spheroid models. Complex spheroids include a stromal component modeled by human endothelial cells (HUVEC) and fibroblasts modeled by human mesenchymal stem cells (MSCs). The concentration ranges selected for each drug and investigational agent were based upon clinically achievable concentrations if the clinical Cmax of the agent was known.
Compounds. The drugs and investigational agents: BAY 2416964 (NSC825713), GNF351 (NSC835774), CH-223191 (NSC835775), CPI-455 (NSC825282), aza-TdCyd (NSC777586), decitabine (NSC127716), belinostat (NSC758774), entinostat (NSC756642), pevonedistat (NSC761192), tazemetostat (NSC777109), talazoparib (NSC765396), olaparib (NSC753686), selinexor (NSC780203), nedisertib (M3814, NSC802822), bortezomib (NSC756655), venetoclax (NSC766270), doxorubicin (NSC123127), elimusertib (BAY189344, NSC800525), ceralasertib (AZD6738, NSC777638), TAK-243 (NSC785004), alisertib (NSC759677), etoposide (NSC141540), topotecan (NSC609699), eribulin (NSC707389), gemcitabine (NSC613327), carboplatin (NSC241240), cisplatin (NSC119875), and SN-38 (NSC673596) were obtained from the National Cancer Institute (NCI) Developmental Therapeutics Program Chemical Repository (32). The FDA-approved anticancer drug set is available from the Developmental Therapeutics Program at https://dtp.cancer.gov/organization/dscb/obtaining/available plates.htm. […] The stock solutions were prepared in dimethyl sulfoxide (DMSO, Sigma-Aldrich, St. Louis, MO, cat. D2650), except for the platinum compounds which were prepared in saline (Quality Biological, Gaithersburg, MD, cat. 114-055-101), at 800-fold the tested concentration and stored at -70 degrees C prior to their use. All drugs and investigational agents were tested over a range starting from a high concentration at or near the clinical Cmax and decreasing in half-log increments. If the clinical Cmax for an agent had not been determined, the highest concentration tested was 10 microM (Table 1).
Cell Culture. All cells were maintained in an incubator at 37 degrees C and 5% CO2 with 95% humidity. The PDC lines were cultured according to standard operating procedures established by the NCI PDMR (https://pdmr.cancer.gov). Briefly, all PDCs were thawed and cultured in Matrigel-coated flasks prepared with a working solution of 1X Ham's F-12 nutrient mix, without supplementation (Invitrogen, Waltham, MA, cat. 11765054), 100 U/mL penicillin-streptomycin (Invitrogen, cat. 15140122), and 2.5% Matrigel (Corning Inc., Corning, NY, cat. 354248) for the first three passages. All PDCs were cultured in complete DMEM/F-12 media containing advanced DMEM/F-12 (Invitrogen, cat. 12634028), 4.9% defined fetal bovine serum, heat inactivated (HyClone Laboratories Inc., Logan, UT, cat. SH30070.03HI), 389 ng/mL hydrocortisone (Sigma-Aldrich, cat. H4001), 9.7 ng/mL human EGF recombinant protein (Invitrogen, cat. PHG0313), 23.4 microg/mL adenine (Sigma-Aldrich, cat. A2786), 97.3 U/mL penicillin-streptomycin (Invitrogen, cat. 15140122), 1.9 mM L-glutamine (Invitrogen, cat. 25030081), and 9.7 microM Y-27632 dihydrochloride (Tocris Bioscience, Bristol, United Kingdom, cat. 1254). The PDCs were cultured in complete DMEM/F12 media without 10 microM Y-27632 dihydrochloride for at least two passages prior to the screen. The established cell lines NCI-H1341 and […] were cultured in DMEM/F-12, HEPES (Invitrogen, cat. 11330032), 5% defined fetal bovine serum (HyClone Laboratories Inc., cat. SH30070.03), ITS premix universal culture supplement [insulin (5 microg/mL), transferrin (5 microg/mL), and selenious acid (5 ng/mL)] […]
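Throughout, for viability, T/C: spheroids mix tumor cells with HUVEC endothelium and human MSC stroma; luminescence taken as viability surrogate after a week of drug exposure.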

Compound `CC(C)CC(NC(=O)C(Cc1ccccc1)NC(=O)c1cnccn1)B(O)O` (stereo not given) + CC(CO)NC(=O)c1cc(-c2ccc(Cl)cc2)nn(-c2cnn(C)c2)c1=O has an IC50 (second compound 0.1 µM) of 4.38 nM, an IC50 (second compound 0.316 µM) of 5.36 nM and an IC50 (second compound 1 µM) of 4.34 nM. For the same compound, the IC50 (second compound 3.16 µM) was 4.86 nM, the IC50 (second compound 10 µM) was 4.16 nM and the viability, T/C (second compound 0.1 µM, first compound 0.000949 µM) was 78.8%. For the same compound, the viability, T/C (second compound 0.1 µM, first compound 0.003 µM) was 71.6%, the viability, T/C (second compound 0.1 µM, first compound 0.00949 µM) was 5.92% and the viability, T/C (second compound 0.1 µM, first compound 0.03 µM) was 2.45%. For the same compound, the viability, T/C (second compound 0.1 µM, first compound 0.0949 µM) was 2%, the viability, T/C (second compound 0.1 µM, first compound 0.3 µM) was 0.19% and the viability, T/C (second compound 0.316 µM, first compound 0.000949 µM) was 103%. The viability, T/C (second compound 0.316 µM, first compound 0.003 µM) was 94.7%, the viability, T/C (second compound 0.316 µM, first compound 0.00949 µM) was 6.1% and the viability, T/C (second compound 0.316 µM, first compound 0.03 µM) was 1.23%. It also gave a viability, T/C (second compound 0.316 µM, first compound 0.0949 µM) of 0.12%, a viability, T/C (second compound 0.316 µM, first compound 0.3 µM) of 1.89% and a viability, T/C (second compound 1 µM, first compound 0.000949 µM) of 113%. It also gave a viability, T/C (second compound 1 µM, first compound 0.003 µM) of 70.6%, a viability, T/C (second compound 1 µM, first compound 0.00949 µM) of 6.39% and a viability, T/C (second compound 1 µM, first compound 0.03 µM) of 2.84%. For the same compound, the viability, T/C (second compound 1 µM, first compound 0.0949 µM) was 0.51%, the viability, T/C (second compound 1 µM, first compound 0.3 µM) was 0.29% and the viability, T/C (second compound 3.16 µM, first compound 0.000949 µM) was 83.5%. The viability, T/C (second compound 3.16 µM, first compound 0.003 µM) was 81.6%, the viability, T/C (second compound 3.16 µM, first compound 0.00949 µM) was 6.11% and the viability, T/C (second compound 3.16 µM, first compound 0.03 µM) was 0.25%. It also gave a viability, T/C (second compound 3.16 µM, first compound 0.0949 µM) of 1.98%, a viability, T/C (second compound 3.16 µM, first compound 0.3 µM) of 1.99% and a viability, T/C (second compound 10 µM, first compound 0.000949 µM) of 68.2%. For the same compound, the viability, T/C (second compound 10 µM, first compound 0.003 µM) was 68.3%, the viability, T/C (second compound 10 µM, first compound 0.00949 µM) was 3.86% and the viability, T/C (second compound 10 µM, first compound 0.03 µM) was 0.37%. The viability, T/C (second compound 10 µM, first compound 0.0949 µM) was 0.52% and the viability, T/C (second compound 10 µM, first compound 0.3 µM) was 1.58%.
